Experimental data from the CheMixHub viscosity set.

Assay: xn = mol fraction of the nth substance listed

CCCC#N + CC(C)(C)O
viscosity [mPa·s]
Conditions | 298.15 K | 303.15 K | 308.15 K | 313.15 K | 318.15 K
101 kPa, x2 = 0.0941 | 0.5487 | 0.5396 | 0.519 | – | –
101 kPa, x2 = 0.1845 | 0.5808 | 0.5686 | 0.5478 | – | –
101 kPa, x2 = 0.2837 | 0.6365 | 0.6123 | 0.5852 | – | –
101 kPa, x2 = 0.3758 | 0.7071 | 0.6764 | 0.6373 | – | –
101 kPa, x2 = 0.4766 | 0.8042 | 0.7523 | 0.6952 | – | –
101 kPa, x2 = 0.5782 | 0.9457 | 0.8545 | 0.7793 | – | –
101 kPa, x2 = 0.6804 | 1.211 | 1.071 | 0.9743 | – | –
101 kPa, x2 = 0.7836 | 1.61 | 1.417 | 1.268 | – | –
101 kPa, x2 = 0.8906 | 2.345 | 2.01 | 1.734 | – | –
101.33 kPa, x2 = 0.0953 | 0.575 | 0.54 | 0.51 | 0.481 | 0.456
101.33 kPa, x2 = 0.1938 | 0.613 | 0.573 | 0.537 | 0.505 | 0.476
101.33 kPa, x2 = 0.2941 | 0.669 | 0.622 | 0.579 | 0.54 | 0.506
101.33 kPa, x2 = 0.3922 | 0.749 | 0.689 | 0.636 | 0.589 | 0.546
101.33 kPa, x2 = 0.4949 | 0.867 | 0.788 | 0.719 | 0.66 | 0.607
101.33 kPa, x2 = 0.591 | 1.03 | 0.923 | 0.834 | 0.753 | 0.685
101.33 kPa, x2 = 0.695 | 1.297 | 1.138 | 1.006 | 0.895 | 0.802
101.33 kPa, x2 = 0.7957 | 1.727 | 1.476 | 1.272 | 1.107 | 0.974
101.33 kPa, x2 = 0.9002 | 2.573 | 2.103 | 1.746 | 1.464 | 1.245

COC(=O)CC(=O)OC + CC(C)=O
303.15 K, 101 kPa
Conditions | viscosity [mPa·s]
x1 = 0.0666 | 0.4127
x1 = 0.139 | 0.5371
x1 = 0.2164 | 0.6676
x1 = 0.3009 | 0.8036
x1 = 0.392 | 0.9488
x1 = 0.4919 | 1.094
x1 = 0.6008 | 1.258
x1 = 0.7208 | 1.429
x1 = 0.8531 | 1.614

COc1ccccc1O + CC(C)=O
303.15 K, 101 kPa
Conditions | viscosity [mPa·s]
x2 = 0.1 | 3.67
x2 = 0.2 | 2.95
x2 = 0.3 | 2.35
x2 = 0.4 | 1.82
x2 = 0.5 | 1.26
x2 = 0.6 | 1.03
x2 = 0.7 | 0.755
x2 = 0.8 | 0.573
x2 = 0.9 | 0.44

Brc1ccccc1 + CC(C)CO
viscosity [mPa·s], 101.33 kPa
Conditions | x1 = 0.1065 | x1 = 0.1936 | x1 = 0.2949 | x1 = 0.4015 | x1 = 0.5016 | x1 = 0.6014 | x1 = 0.7006 | x1 = 0.7967 | x1 = 0.8995
298.15 K | 2.649 | 2.205 | 1.831 | 1.532 | 1.36 | 1.231 | 1.144 | 1.088 | 1.055
313.15 K | 1.727 | 1.483 | 1.28 | 1.116 | 1.022 | 0.9534 | 0.9062 | 0.8769 | 0.8637

CCCC#N + CC(C)CO
viscosity [mPa·s], 101.33 kPa
Conditions | x2 = 0.0997 | x2 = 0.2 | x2 = 0.2986 | x2 = 0.3982 | x2 = 0.4962 | x2 = 0.5918 | x2 = 0.7022 | x2 = 0.8004 | x2 = 0.8991
298.15 K | 0.582 | 0.626 | 0.69 | 0.778 | 0.895 | 1.051 | 1.315 | 1.672 | 2.273
308.15 K | 0.516 | 0.551 | 0.6 | 0.667 | 0.756 | 0.874 | 1.069 | 1.323 | 1.742
318.15 K | 0.462 | 0.489 | 0.528 | 0.58 | 0.648 | 0.737 | 0.881 | 1.066 | 1.363

C1=C[C@H]2[C@@H](C1)[C@H]1C=C[C@@H]2C1 + CC(C)O
viscosity [mPa·s], 101.2 kPa
Conditions | x1 = 0.1015 | x1 = 0.1993 | x1 = 0.2999 | x1 = 0.4006 | x1 = 0.4998 | x1 = 0.5999 | x1 = 0.6977 | x1 = 0.7999 | x1 = 0.8995
293.15 K | 2.227 | 2.228 | 2.271 | 2.356 | 2.481 | 2.69 | 2.944 | 3.291 | 3.718
303.15 K | 1.69 | 1.7 | 1.737 | 1.811 | 1.918 | 2.09 | 2.314 | 2.581 | 2.919
313.15 K | 1.303 | 1.322 | 1.363 | 1.435 | 1.535 | 1.689 | 1.869 | 2.109 | 2.394
